{"source": "patent US9289446B2", "about": "“Myocardial perfusion imaging methods and compositions” (GILEAD SCIENCES, INC., priority 2002, dated 2016)", "key": {"[1]": {"tested_on": "blood flow in coronary, mesenteric, hind limb and renal vascular beds", "experiment": "Example 8: vasodilator effects in different vascular beds (CBF, MBF, LBF, RBF) in awake dogs", "format": "in vivo", "conditions": "CVT-3146 2.5 μg/kg, ADO 250 μg/kg", "method": "Example 8 employed a pharmaceutical composition consisting of an aqueous composition of 100 micrograms/mL CVT-3146 in 15% (w:v) propylene glycol and 100 mM phosphate buffer at pH 7 with 0.1% EDTA. The formulation was stored in type I glass vials at 5 mL per vial.\nIn this study the vasodilator effects of CVT-3146 were compared to those of ADO in different vascular beds in awake dogs. Dogs were chronically instrumented for measurements of the blood flow in coronary (CBF), mesenteric (MBF), hind limb (LBF), and renal (RBF) vascular beds, and hemodynamics."}, "[2]": {"tested_on": "heart rate (HR) and blood pressure (BP)", "experiment": "Example 5: heart rate, blood pressure and plasma catecholamines after i.v. bolus in awake rats (sympathoexcitation)", "format": "in vivo", "conditions": "in the presence of hexamethonium 10 mg/kg, n=5", "method": "The present study was carried out to determine whether CVT-3146, a selective A2A adenosine receptor agonist, causes sympathoexcitation.\nCVT (0.31 μg/kg-50 μg/kg) was given as a rapid i.v. bolus to awake rats and heart rate (HR) and blood pressure (BP) were monitored. CVT-3146 caused an increase in BP and systolic pressure (SP) at lower doses while at higher doses there was a decrease in BP and SP. […] The increase in HR was evident at the lowest dose of CVT at which there was no appreciable decrease in BP. ZM241385 (30 μg/kg, N=5), an A2A receptor antagonist, attenuated the decrease in BP (CVT-3146: 14±3%, ZM: 1±1%) and the increase in HR (CVT: 27±3%, ZM: 18±3%) caused by CVT-3146. Pretreatment with metoprolol (MET, 1 mg/kg, n=5), a beta-blocker, attenuated the increase in HR (CVT: 27±3%, MET: 15±2%), but had no effect on hypotension caused by CVT-3146. In the presence of hexamethonium (HEX, 10 mg/kg, n=5), a ganglionic blocker, the tachycardia was prevented (CVT: 27±3%, HEX: −1±2%), but BP was further reduced (CVT: −11±2%, HEX: −49±5%)."}}}
{"molecule": "Nc1ncnc2c1ncn2[C@@H]1O[C@H](CO)[C@@H](O)[C@H]1O", "note": "[adenosine, reference compound]", "values": [{"measurement": "duration for CBF above 2-fold of the baseline", "setting": "[1]", "value": "16 ± 3", "unit": "s"}]}
{"molecule": "C[N+](C)(C)CCCCCC[N+](C)(C)C", "note": "[hexamethonium, reference compound]", "values": [{"measurement": "change in BP caused by CVT-3146", "setting": "[2]", "value": "−49±5", "unit": "%"}, {"measurement": "increase in HR (tachycardia) caused by CVT-3146", "setting": "[2]", "value": "−1±2", "unit": "%"}]}
